Reference: ChEMBL document CHEMBL1137870, “Synthesis and evaluation of 2-amino-8-alkoxy quinolines as MCHr1 antagonists. Part 2” (Bioorg Med Chem Lett, 2004)
pIC50: −log10 of the molar value.

Assays:
[1] = target: T1, Melanin-concentrating hormone receptor 1 (Homo sapiens, UniProt Q99705); assay: Concentration required to inhibit binding of [125I]-MCH radioligand to human Melanin-concentrating hormone receptor 1 in IMR-32 I3.4.2 cell membranes
[2] = target: T1, Melanin-concentrating hormone receptor 1; assay: Concentration required to inhibit 50% of melanin-concentrating hormone induced [Ca2+] flux in IMR-32 cells measured by using a fluorometric imaging plate reader; format: functional, cell-based
[3] = Half life in plasma was determined at the peroral dose of 10 mg/kg in diet-induced obese (DIO) mice; format: ADME, organism-based; parameters: dose 10 mg/kg, route oral; conditions: mouse, po
[4] = Area under curve in plasma was determined at the peroral dose of 10 mg/kg in diet-induced obese (DIO) mice; format: ADME, organism-based; parameters: dose 10 mg/kg, route oral; conditions: mouse, in vivo, po
[5] = Brain/plasma ratio was determined at peroral dose of 10 mg/kg in diet-induced obese (DIO) mice; format: ADME, organism-based; parameters: dose 10 mg/kg, route oral; conditions: mouse, brain and plasma, po
[6] = Area under curve in brain was determined at the peroral dose of 10 mg/kg in diet-induced obese (DIO) mice; format: ADME, organism-based; parameters: dose 10 mg/kg, route oral; conditions: mouse, in vivo, po
[7] = Half life in brain was determined at the peroral dose of 10 mg/kg in diet-induced obese (DIO) mice; format: ADME, organism-based; parameters: dose 10 mg/kg, route oral; conditions: mouse, po

T1 sequence (Q99705 whole entry): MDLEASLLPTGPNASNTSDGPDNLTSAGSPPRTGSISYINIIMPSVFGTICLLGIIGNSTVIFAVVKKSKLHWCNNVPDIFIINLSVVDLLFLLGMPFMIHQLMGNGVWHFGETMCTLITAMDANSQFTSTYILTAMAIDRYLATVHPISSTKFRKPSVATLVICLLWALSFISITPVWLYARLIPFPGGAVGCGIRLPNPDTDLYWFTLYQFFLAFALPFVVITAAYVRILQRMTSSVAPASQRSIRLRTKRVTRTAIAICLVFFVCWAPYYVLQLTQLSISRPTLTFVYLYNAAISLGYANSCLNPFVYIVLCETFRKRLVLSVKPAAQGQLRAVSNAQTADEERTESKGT

pIC50 [1] | pIC50 [2] | SMILES | other results
7.00 | 6.47 | CC(CNCc1ccccc1)Oc1cccc2ccc(N)nc12 (stereo not given) | –
9.05 | 8.10 | Nc1ccc2cccc(OCCCNC(=O)Nc3cccc(Cl)c3)c2n1 | –
9.00 | 7.00 | Nc1ccc2cccc(OCCCNc3ccc4c(c3)OC(F)(F)O4)c2n1 | –
8.00 | 6.82 | CC(CNCc1ccsc1)Oc1cccc2ccc(N)nc12 (stereo not given) | –
7.40 | 6.54 | CC(CN1CCCCC1)Oc1cccc2ccc(N)nc12 (stereo not given) | –
7.10 | 6.72 | CC(CN1CCOCC1)Oc1cccc2ccc(N)nc12 (stereo not given) | –
8.30 | 6.96 | Nc1ccc2cccc(OCCCNC(=O)Nc3ccc4c(c3)OCO4)c2n1 | –
9.00 | 6.22 | COc1cccc(CNCC(C)Oc2cccc3ccc(N)nc23)c1 (stereo not given) | –
9.40 | 8.52 | Nc1ccc2cccc(OCCCNC(=O)c3cccc(Cl)c3)c2n1 | –
8.30 | 8.00 | N#Cc1cccc(C(=O)NCCCOc2cccc3ccc(NCc4ccc(-c5cccc(Cl)c5)o4)nc23)c1 | –
8.22 | 7.70 | Nc1ccc2cccc(OCCCNC(=O)c3cccc(OC(F)(F)F)c3)c2n1 | half-life [3]: 1.2 h; AUC [4]: 424 ng·h/mL; Kp [5]: 0.2; AUC [6]: 68 ng·h/mL; half-life [7]: 0.6 h
8.00 | 7.00 | CC(CNCc1ccoc1)Oc1cccc2ccc(N)nc12 (stereo not given) | –
7.30 | – | CC(CC(C)(C)C)Oc1cccc2ccc(N)nc12 (stereo not given) | –
7.52 | 7.52 | CC(CNC1CCCC1)Oc1cccc2ccc(N)nc12 (stereo not given) | –
8.15 | 7.15 | Nc1ccc2cccc(OCCCNC(=O)c3ccc4c(c3)OCO4)c2n1 | –
8.70 | 7.40 | N#Cc1cccc(C(=O)NCCCOc2cccc3ccc(NCc4ccc(-c5ccc(Cl)cc5)o4)nc23)c1 | –
7.10 | 6.34 | CC(CNCC1CC1)Oc1cccc2ccc(N)nc12 (stereo not given) | –
7.15 | 6.44 | CC(CN1CCCC1)Oc1cccc2ccc(N)nc12 (stereo not given) | –

pIC50 [1] | pIC50 [2] | SMILES | other results
6.18 | < 5.00 | Nc1ccc2cccc(OCCNCc3ccoc3)c2n1 | –
8.70 | 7.52 | COc1cccc(C(=O)NCCCOc2cccc3ccc(N)nc23)c1 | –
6.28 | 5.05 | Nc1ccc2cccc(OCCNCc3ccc4c(c3)OCO4)c2n1 | –
7.52 | 6.89 | CC(CNCc1ccc2c(c1)OCO2)Oc1cccc2ccc(N)nc12 (stereo not given) | –
6.28 | 5.09 | CC(CNc1ccc2[nH]ncc2c1)Oc1cccc2ccc(N)nc12 (stereo not given) | –
7.30 | 5.51 | O=C(NCCCOc1cccc2ccc(NCc3ccc(-c4ccccc4Cl)o3)nc12)Nc1ccc2c(c1)OCO2 | –
8.00 | 6.57 | Nc1ccc2cccc(OCCCNc3ccc4c(c3)OCO4)c2n1 | –
8.52 | 7.82 | COCC1=C(C(=O)OC)[C@H](c2ccc(F)c(F)c2)N(C(=O)NCCCN2CCC(c3cccc(NC(C)=O)c3)CC2)C(=O)N1 [SNAP-7941] | –
7.22 | 6.85 | CC(C)c1ccc(C(=O)NCCCOc2cccc3ccc(N)nc23)cc1 | –
8.52 | 8.15 | N#Cc1cccc(C(=O)NCCCOc2cccc3ccc(N)nc23)c1 | half-life [3]: 1.4 h; AUC [4]: 328 ng·h/mL; Kp [5]: 0.03; AUC [6]: 11 ng·h/mL; half-life [7]: 1.6 h
7.00 | 7.00 | CC(CNCC1CCCC1)Oc1cccc2ccc(N)nc12 (stereo not given) | –
8.30 | 6.66 | Nc1ccc2cccc(OCCCNCc3ccc(Cl)c(C(F)(F)F)c3)c2n1 | half-life [3]: 8.9 h; AUC [4]: 9960 ng·h/mL; Kp [5]: 0.96; AUC [6]: 9520 ng·h/mL
6.68 | 5.66 | CC(CNC1CCCCC1)Oc1cccc2ccc(N)nc12 (stereo not given) | –
8.00 | 6.20 | CC(C)c1ccc(CNCCCOc2cccc3ccc(N)nc23)cc1 | –
7.07 | 6.06 | CN(C)CC1CCc2cc(NC(=O)c3ccc(-c4ccc(F)cc4)cc3)ccc2C1 (single isomer, unassigned; (-)) | –
7.30 | 6.24 | CC(CNC1CC1)Oc1cccc2ccc(N)nc12 (stereo not given) | –
9.00 | 7.70 | O=C(NCCCOc1cccc2ccc(NCc3ccc(-c4ccccc4Cl)o3)nc12)c1cccc(Cl)c1 | –
8.00 | 5.95 | CCCNc1ccc2cccc(OCCCNC(=O)c3cccc(Cl)c3)c2n1 | –
